Measurements reported in US20250171821A1, “HIF-1 ACTIVATORS AND USES THEREOF” (Ramot at Tel-Aviv University Ltd., priority 2022, published 2025).

Columns and labels:
[1] = test system: NIH/3T3 cell line; assay: Collagen type 1 immunofluorescence in NIH/3T3 cells (Incucyte); assay type: cell-based, mouse
Description: Embryonic mouse fibroblast NIH/3T3 cell line (ATCC) were seeded at a concentration of 50*10^3 cells/well on 96 well glass bottom plate (P96-1.5H-N, Cellvis) for the immunofluorescence experiment and on cell culture microplate, 96 well, PS, F-Bottom (655090, greiner) for the viability experiment. The cells were cultured with Dulbecco's modified Eagle's medium (DMEM) supplemented with 10% fetal calf serum, 1% Penicillin-Streptomycin solution and 1% L-glutamine (All purchased from Rhenium). At 24 hours post seeding, cells were treated for another 48 hours by replacing them with the cell medium supplemented with a serial dilution (5-0.02 μM, factor dilution of 2) of the ML228, Daprodustat, Enarodustat, Molidustat, Vadadustat or Roxadustat molecules dissolved in DMSO. The final DMSO concentration in the cell medium was 0.01%. Cells were maintained in an incubator at 37° C. in a humidified atmosphere containing 5% CO2.
At 48 hours post treatment with either Daprodustat, Enarodustat, Molidustat, Vadadustat or Roxadustat, cells were fixed for 10 minutes together with their media with 8% paraformaldehyde (PFA, Electron Microscopy Sciences) dissolved in phosphate-buffered saline (PBS, Invitrogen) to a final concentration of 4% PFA, without any wash to avoid cells detachment from the glass. Cells were briefly washed four times with ice-cold PBS to remove the PFA and kept overnight at 4° C. The following day, a blocking solution which contains 1.5% Bovine Serum Albumin (Sigma Aldrich) dissolved in PBS was applied for 30 minutes, followed by an overnight incubation at 4° C. with recombinant rabbit anti-mouse Collagen-I 1° antibody (primary Ab) [EPR24331-53] (ab270993, Abcam), dissolved in the blocking solution (1:1000 dilution). The following day, cells were washed for 3 times with PBS (5 minutes each), followed by immunostaining with goat anti-rabbit IgG H&L (Alexa Fluor® 488) 2° antibody (secondary Ab) (ab150077, Abcam) dissolved in blocking solution (1:1000 dilution). Cells were washed again for 3 times with PBS (5 minutes each), stained for 30 minutes with DRAQ5™ (ab108410, Abcam) for nuclei staining dissolved in PBS (1:1000 dilution), and washed once again with PBS. For the ML228 experiment, cells were washed with PBS before applying 4% PFA dissolved in PBS. Then, fixed cells were additionally permeabilized with 0.2% Triton™ X-100 (Merck) dissolved in PBS, additionally stained with Phalloidin-Atto 594 (51927, Sigma Aldrich) for F-Actin staining for 1 hour (1:250 dilution) together with the aforementioned secondary antibody, followed by 10 minutes incubation with DAPI staining solution (ab228549, Abcam) for nuclei staining dissolved in PBS (1:1000 dilution).
Images were taken using a ZEISS LSM 900 in wide-field or in the LSM confocal detection mode (ML228 experiment), using Zen 3.1. Fluorescence readouts were obtained at excitation/emission: 353/465 nm (DAPI), 493/517 nm (Collagen-I), 590/618 (F-Actin) and 647/683 nm (DRAQ5) using a Plan-Apochromat 20×/0.8 M27 objective.
Image acquisition and quantification were performed by Incucyte SX5 (Sartorius) using software version 2022B Rev2. A standard scan was done for 9 images per well using 20× objective, 2 optical modules (green at excitation/emission of 453-485 nm/494-533 nm in 300 msec acquisition time, and near-IR at excitation/emission of 648-674 nm/685-756 nm in 400 msec acquisition time, including Phase channel) following immunofluorescence protocol. For the image analysis, 2-6 replicates per condition were used. Using the Basic Analyzer mode, “Phase Object Confluence (%)” was acquired using the Phase channel. This measurement is the percentage of the image area occupied by cells. “Total Collagen-I Integrated Intensity Per Image (GCU×μm^2/Image)” was acquired using the green optical module. GCU stands for Green calibrated Unit, while this measurement is the total sum of the Collagen-I objects' fluorescent intensity in the image. “#Cells (Per image)” was acquired by the near-IR optical module. […]

[2] = test system: human gingival fibroblasts cells (HGF); assay: Collagen-I immunofluorescence in human fibroblasts treated with ML228; assay type: cell-based; conditions: 48 hours
Source text: Human fibroblasts were isolated from fragments of healthy masticatory oral mucosa (from the posterior hard palate) collected during periodontal surgeries. Informed consent was obtained from all patients. Shallow tissue samples (without submucosa) with a diameter of approximately 2 mm were excised using a #15C scalpel blade. Exclusion criteria for potential tissue donors were smoking, any systemic disease, pregnancy or lactation, or a history of periodontal disease. Cells were separated into connective tissue and epithelium using dispase II (Sigma-Aldrich, Rehovot, Israel) at 2 mg/mL for two hours at 37° C.
Cells were cultured to sub-confluence on a 96-well plate culture plate or on round-glass cover slips in a 24 well plate and incubated with ML228 at 37° C. in 5% CO2 for 24-96 hours. Cells were fixed for 20 minutes with 4% paraformaldehyde in phosphate-buffered saline (PBS), washed 3 times with PBS, blocked with 2% bovine serum albumin diluted in PBS, which contains 0.1% Triton X-100 for 20 minutes. Fixed cells were incubated with 1:200 of rabbit anti-human type I collagen (Abcam, Cambridge, UK) for 1 hour at 25° C. […] Fluorescence readouts were obtained with excitation/emission (ex/em) of 495/519 nanometer (nm; green) and 340/488 nm (blue) (for FIGS. 2B and 2D); or with ex/em of 358/461 nm (blue), 495/519 nm (green) and 652/668 nm (red) (for FIG. 5A).
All images were analyzed with the computer-based image analysis system (Image J) using the Fiji 2 software (National Institute of Health). Equal field areas were selected for analysis and quantification of fluorescence signals. Quantification of fluorescence signal intensity measured by color threshold and normalized against β-tubulin intensity. Total collagen was evaluated by total fluorescence area intensity.
The effect of ML228 (chemical structure thereof is depicted in FIG. 1), a known activator of HIF, on fibroblasts and osteoblasts was analyzed. […] Collagen-I levels were evaluated by immunohistochemistry via Collagen-I antibody and a fluorescently-labeled secondary antibody. […]

Compound: c1ccc(-c2ccc(CNc3nc(-c4ccccn4)nnc3-c3ccccc3)cc2)cc1 [ML228, N-([1,1′-Biphenyl]-4-ylmethyl)-6-phenyl-3-(2-pyridinyl)-1,2,4-triazin-5-amine]
- Collagen type 1 normalized to cells confluence vs untreated cells ([1]; 5 μM ML228, 48 hours, p<0.05): reduction
- concentrations with significant increase of Collagen type 1 normalized to cells confluence vs untreated cells ([1]; 48 hours, one-way ANOVA, p<0.05 to p<0.0001): 0.31 to 2.5 µM
- Collagen-I levels compared to baseline of non-treated cells ([2]; ML228 above 312 nM, normalized to cell number (DAPI), FIG. 5C): more than two-fold higher
- Collagen-I levels at higher concentrations ([2]; ML228 above 10 μM (10 or 20 μM), HGF cells): gradually decrease
- concentration at which maximum collagen levels were observed ([2]; fibroblasts): 5 µM
